From PubChem BioAssay (NCI)
Where “and” joins values, the source holds several entries; their conditions need not be identical. Identical values can stand only once.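 Following 48 hours of exposure in 96-well plates, responses at five concentrations were used to interpolate endpoints linearly. The concentration for 50% growth inhibition is given as GI50. Definition used: TGI = concentration required for complete inhibition of growth.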 Numbered stars: 1 amine (or outer) side, 2 acyl side, 3 side chain; on linkers, the order of the positions; unused ones are H or OH. Bridge positions count the residues as written; N and C are the ends. Square brackets hold non-standard residues; d marks the D form. Peptide text beside a SMILES is read from it. I, II: the chains in the order shown. Actinocin(9to1) = Cc1c2oc3c(C)ccc(C(=O)[*:1])c3nc-2c(C(=O)[*:2])c(N)c1=O; aThr = C[C@H](O)[C@H](N)C(=O)O; NMeV = CN[C@H](C(=O)O)C(C)C; Sar = CNCC(=O)O

Experiments:
Test in all cases: NCI tumour cell line growth inhibition, 48 h
SK-MEL-2 melanoma = test system: SK-MEL-2 melanoma
SK-MEL-5 melanoma = test system: SK-MEL-5 melanoma
LXFL 529 NSCLC = test system: LXFL 529 NSCLC
HCT-15 colon = test system: HCT-15 colon
SF-539 CNS = test system: SF-539 CNS
KM20L2 colon = test system: KM20L2 colon
CCRF-CEM leukemia = test system: CCRF-CEM leukemia
M19-MEL melanoma = test system: M19-MEL melanoma
UACC-257 melanoma = test system: UACC-257 melanoma
HL-60(TB) leukemia = test system: HL-60(TB) leukemia
HOP-92 NSCLC = test system: HOP-92 NSCLC
MALME-3M melanoma = test system: MALME-3M melanoma
HT29 colon = test system: HT29 colon
TK-10 renal = test system: TK-10 renal
RXF 393 renal = test system: RXF 393 renal
UO-31 renal = test system: UO-31 renal
K-562 leukemia = test system: K-562 leukemia
U251 CNS = test system: U251 CNS
SNB-19 CNS = test system: SNB-19 CNS
SNB-78 CNS = test system: SNB-78 CNS
HOP-18 NSCLC = test system: HOP-18 NSCLC
HCC-2998 colon = test system: HCC-2998 colon
SF-295 CNS = test system: SF-295 CNS
IGROV1 ovarian = test system: IGROV1 ovarian
SK-OV-3 ovarian = test system: SK-OV-3 ovarian
RPMI-8226 leukemia = test system: RPMI-8226 leukemia
SNB-75 CNS = test system: SNB-75 CNS
CAKI-1 renal = test system: CAKI-1 renal
SF-268 CNS = test system: SF-268 CNS
OVCAR-5 ovarian = test system: OVCAR-5 ovarian
LOX IMVI melanoma = test system: LOX IMVI melanoma
NCI-H226 lung = test system: NCI-H226 lung
UACC-62 melanoma = test system: UACC-62 melanoma
786-0 renal = test system: 786-0 renal
ACHN renal = test system: ACHN renal
SK-MEL-28 melanoma = test system: SK-MEL-28 melanoma
COLO 205 colon = test system: COLO 205 colon
HCT-116 colon = test system: HCT-116 colon
NCI-H522 lung = test system: NCI-H522 lung
NCI-H460 lung = test system: NCI-H460 lung
HOP-62 NSCLC = test system: HOP-62 NSCLC
OVCAR-4 ovarian = test system: OVCAR-4 ovarian
MOLT-4 leukemia = test system: MOLT-4 leukemia
DMS 114 small cell lung = test system: DMS 114 small cell lung
A498 renal = test system: A498 renal
OVCAR-8 ovarian = test system: OVCAR-8 ovarian
SR leukemia = test system: SR leukemia
KM12 colon = test system: KM12 colon
RXF-631 renal = test system: RXF-631 renal
NCI-H23 lung = test system: NCI-H23 lung
EKVX NSCLC = test system: EKVX NSCLC
OVCAR-3 ovarian = test system: OVCAR-3 ovarian
SN12C renal = test system: SN12C renal
M14 melanoma = test system: M14 melanoma
XF 498 CNS = test system: XF 498 CNS
A549 NSCLC = test system: A549 NSCLC
DLD-1 colon = test system: DLD-1 colon
SW-620 colon = test system: SW-620 colon
DMS 273 small cell lung = test system: DMS 273 small cell lung
MCF7 breast = test system: MCF7 breast
P388/ADR leukemia = test system: P388/ADR leukemia
P388 leukemia = test system: P388 leukemia
T-47D breast = test system: T-47D breast
SN12K1 renal = test system: SN12K1 renal
HS 578T breast = test system: HS 578T breast

## CC[As](CC)SCC1OC(OC(C)=O)C(OC(C)=O)C(OC(C)=O)C1OC(C)=O (centres undefined)
SK-MEL-2 melanoma
  TGI: 26.2 µM
SK-MEL-5 melanoma
  TGI: 28.4 µM
LXFL 529 NSCLC
  TGI: 3.77 µM
HCT-15 colon
  TGI: 26.4 µM
SF-539 CNS
  TGI: 27.4 µM
KM20L2 colon
  TGI: 32.7 µM
CCRF-CEM leukemia
  TGI: 18.4 µM
M19-MEL melanoma
  TGI: 27.5 µM
UACC-257 melanoma
  TGI: 28.6 µM
HL-60(TB) leukemia
  TGI: 19.2 µM
HOP-92 NSCLC
  TGI: 13.2 µM
MALME-3M melanoma
  TGI: 10.3 µM
HT29 colon
  TGI: 54 µM
TK-10 renal
  TGI: 30.4 µM
RXF 393 renal
  TGI: 9.69 µM
UO-31 renal
  TGI: 29.8 µM
K-562 leukemia
  TGI: 14 µM
U251 CNS
  TGI: 25.3 µM
SNB-19 CNS
  TGI: 33.5 µM
SNB-78 CNS
  TGI: 34.1 µM
HOP-18 NSCLC
  TGI: 29.6 µM
HCC-2998 colon
  TGI: 31.7 µM
SF-295 CNS
  TGI: 35.7 µM
IGROV1 ovarian
  TGI: 33.8 µM
SK-OV-3 ovarian
  TGI: 29.3 µM
RPMI-8226 leukemia
  TGI: 36.2 µM
SNB-75 CNS
  TGI: 52.7 µM
CAKI-1 renal
  TGI: 10.4 µM
SF-268 CNS
  TGI: 25.8 µM
OVCAR-5 ovarian
  TGI: 32.4 µM
LOX IMVI melanoma
  TGI: 33.6 µM
NCI-H226 lung
  TGI: 28.9 µM
UACC-62 melanoma
  TGI: 27.2 µM
786-0 renal
  TGI: 28.1 µM
ACHN renal
  TGI: 31.5 µM
SK-MEL-28 melanoma
  TGI: 15.7 µM
COLO 205 colon
  TGI: 10 µM
HCT-116 colon
  TGI: 32.1 µM
NCI-H522 lung
  TGI: 3.2 µM
NCI-H460 lung
  TGI: 31.3 µM
HOP-62 NSCLC
  TGI: 38.3 µM
OVCAR-4 ovarian
  TGI: 37 µM
MOLT-4 leukemia
  TGI: 48.2 µM
DMS 114 small cell lung
  TGI: 17.6 µM
A498 renal
  TGI: 38.9 µM
OVCAR-8 ovarian
  TGI: 31.9 µM
SR leukemia
  TGI: 75.4 µM
KM12 colon
  TGI: 34.7 µM
RXF-631 renal
  TGI: 6.64 µM
NCI-H23 lung
  TGI: 36.4 µM
EKVX NSCLC
  TGI: 37.2 µM
OVCAR-3 ovarian
  TGI: 27.6 µM
SN12C renal
  TGI: 28.4 µM
M14 melanoma
  TGI: 24.7 µM
XF 498 CNS
  TGI: 32 µM
A549 NSCLC
  TGI: 39.6 µM
DLD-1 colon
  TGI: 30.9 µM
SW-620 colon
  TGI: 16.3 µM
DMS 273 small cell lung
  TGI: 29.4 µM

## Cc1c2oc3c(C)ccc(C(=O)N[C@@H]4C(=O)N[C@H](C(C)C)C(=O)N5CCC[C@H]5C(=O)N(C)CC(=O)N(C)[C@@H](C(C)C)C(=O)O[C@H]4C)c3nc-2c(C(=O)N[C@@H]2C(=O)N[C@H](C(C)C)C(=O)N3CCC[C@H]3C(=O)N(C)CC(=O)N(C)[C@@H](C(C)C)C(=O)O[C@H]2C)c(N)c1=O (I: [aThr][dV]P[Sar][NMeV] / II: [aThr][dV]P[Sar][NMeV]; ester I:1-I:C, II:1-II:C; linker I:N-II:N via Actinocin(9to1))
LXFL 529 NSCLC
  GI50: 0.00139 µM and 0.000348 µM
  TGI: 0.07 µM and 0.32 µM
KM20L2 colon
  GI50: 0.000964 µM
  TGI: 0.106 µM and 0.0859 µM
M19-MEL melanoma
  GI50: 0.000496 µM
  TGI: 0.0194 µM and 0.0127 µM
SNB-78 CNS
  GI50: 0.00447 µM
  TGI: 0.117 µM and 0.315 µM
HOP-18 NSCLC
  GI50: 0.00903 µM
  TGI: 0.123 µM and 0.125 µM
MCF7 breast
  TGI: 0.0693 µM and 0.25 µM and 0.197 µM
SNB-75 CNS
  TGI: 24.6 nM [middle of 6 runs]
P388/ADR leukemia
  TGI: 0.171 µM
P388 leukemia
  TGI: 0.0154 µM
DMS 114 small cell lung
  GI50: 0.00101 µM
  TGI: 0.0187 µM and 0.0122 µM
T-47D breast
  TGI: 34.3 nM [middle of 4 runs]
SN12K1 renal
  TGI: 0.148 µM
XF 498 CNS
  GI50: 0.000444 µM
  TGI: 0.0128 µM and 0.00303 µM
HS 578T breast
  TGI: 47.7 nM [middle of 4 runs]
DLD-1 colon
  GI50: 0.0019 µM
  TGI: 0.208 µM and 1.2 µM
DMS 273 small cell lung
  GI50: 0.000783 µM
  TGI: 0.026 µM and 0.0178 µM
